Experimental findings from patent publication US9963455B2, “Pyrazolo[1,5-a]pyrimidines as antiviral compounds” (Curovir AB, priority 2014, dated 2018) are described below.

Like-named read-outs stand apart in the source and are kept apart here.

Holding throughout (format): cell-based
Assay [1] deals with coxsackie B virus strain 4. Kind of assay: CPE inhibition in mammalian cell culture, Cox-B4. On the set-up: inhibition: dose or concentration left out as unconfirmed. Particulars: read-out: antiviral effect, B4.
Assay [2] deals with Ljungan virus strain 012. Kind of assay: CPE inhibition in mammalian cell culture, LV012. To be noted: Parechovirus B, read-out: antiviral effect, LV012; for inhibition at 100 µM: Conc. 0.1 mM; for inhibition at 1 µM: Conc. 1 µM; for inhibition at 5 µM: Conc. 5 µM.
The test system of assay [3] is Enterovirus strain 6. The assay is described as follows: microbe, parasite or virus in culture. On the set-up: inhibition: dose or concentration left out as unconfirmed. Particulars: for inhibition: read-out: antiviral effect, EV6.
The subject of assay [4] is Enterovirus strain 30. The assay is described as follows: CPE inhibition in mammalian cell culture, EV30. To be noted: for inhibition at 100 µM: Conc. 0.1 mM; for inhibition at 100 µM / inhibition at 1 µM / inhibition at 5 µM: read-out: antiviral effect, EV30; for inhibition at 1 µM: Conc. 1 µM; for inhibition at 5 µM: Conc. 5 µM.
Assay [5] concerns polio virus strain 1. Kind of assay: microbe, parasite or virus in culture. Further details: inhibition: dose or concentration left out as unconfirmed. Particulars: read-out: antiviral effect, Polio 1.
The subject of assay [6] is coxsackie B virus strain 2. The assay is described as follows: CPE inhibition in mammalian cell culture, Cox-B2. To be noted: read-out: antiviral effect, B2. Further details: inhibition: dose or concentration left out as unconfirmed.
Assay [7] concerns coxsackie B virus strain 1. Kind of assay: CPE inhibition in mammalian cell culture, Cox-B1. On the set-up: inhibition: dose or concentration left out as unconfirmed. To be noted: for inhibition / inhibition at 1000 µM / inhibition at 5000 µM: read-out: antiviral effect, B1.
For assay [8], the system named is coxsackie B virus strain 5. Kind of assay: CPE inhibition in mammalian cell culture, Cox-B5. On the set-up: inhibition: dose or concentration left out as unconfirmed. To be noted: read-out: antiviral effect, B5.
Assay [9] relates to encephalomyocarditis virus. The assay is described as follows: CPE inhibition in mammalian cell culture, EMCV. Particulars: Cardiovirus A; Conc. 0.1 mM; read-out: antiviral effect, EMCV.
Assay [10] concerns Ljungan virus strain 145. Kind of assay: CPE inhibition in mammalian cell culture, LV145. Particulars: Parechovirus B; Conc. 0.1 mM; read-out: antiviral effect, LV145.
Assay [11] relates to coxsackie B virus strain 3. The assay is described as follows: CPE inhibition in mammalian cell culture, Cox-B3. Further details: inhibition: dose or concentration left out as unconfirmed. Particulars: for inhibition at 0.01 µM: read-out: % inh.; for inhibition / inhibition at 1000 µM / inhibition at 5000 µM: read-out: antiviral effect, B3.
Assay [12] deals with EV68. Kind of assay: CPE inhibition in mammalian cell culture, EV68. Further details: antiviral effect, EV68: unit of the concentration uncertain.
The subject of assay [13] is Human parechovirus strain 1. The assay is described as follows: CPE inhibition in mammalian cell culture, HPeV-1. Particulars: Parechovirus A, read-out: antiviral effect, HPeV-1; for inhibition at 100 µM: Conc. 0.1 mM; for inhibition at 5 µM: Conc. 5 µM.
In assay [14] the test system is Enterovirus strain 71. The assay is described as follows: CPE inhibition in mammalian cell culture, EV71. To be noted: for inhibition at 100 µM: Conc. 0.1 mM, read-out: antiviral effect, EV71.

Turning to `COc1ccc(-c2c(C)nn3c(NCc4cccc(S(C)(=O)=O)c4)cc(C)nc23)cc1OC` [Ex. 82, 3-(3,4-dimethoxyphenyl)-2,5-dimethyl-N-[(3-methylsulfonylphenyl)methyl]pyrazolo[1,5-a]pyrimidin-7-amine], the inhibition in assay [1] was found to be 100%; in assay [3], 89%; in assay [5], 100%; in assay [6] it was 98%; in [7] it was 95%; in assay [8] it was 89%. In addition, the inhibition in assay [11] amounted to 91%. The inhibition at 100 µM worked out at 0% in [2], 94% in assay [4], 0% in assay [9] and 0% in assay [10]. Further, in [11], the inhibition at 0.01 µM came out at 82%. In [12] (Conc. 0.1 (unit uncertain)), the “antiviral effect, EV68” value stood at 24%.
With `COc1ccc(-c2c(C)nn3c(NCc4ccc(NS(C)(=O)=O)cc4)cc(C)nc23)cc1OC` [Ex. 80, N-[4-[[[3-(3,4-dimethoxyphenyl)-2,5-dimethyl-pyrazolo[1,5-a]pyrimidin-7-yl]amino]methyl]phenyl]methanesulfonamide], the inhibition at 1000 µM stood at 78% in assay [1]; 85% in assay [5]; 96% in assay [6]; 78% in assay [7]; 97% in assay [8]; 78% in assay [11]. The inhibition at 1 µM in [2] is 0%; in assay [3] (read-out: % inh.) it was 93%; in assay [4] it was 90%; in assay [13] (Conc. 1 µM), 0%. Besides, the “antiviral effect, EV68” value in assay [12] (Conc. 1 (unit uncertain)) worked out at 30%.
Turning to `COc1ccc(-c2c(C)nn3c(NCc4ccncc4)cc(C)nc23)cc1OC` [Ex. 75, 3-(3,4-dimethoxyphenyl)-2,5-dimethyl-N-(4-pyridylmethyl)pyrazolo[1,5-a]pyrimidin-7-amine], the inhibition at 100 µM was 85% in assay [14]; 0% in assay [2]; 100% in assay [4]; 0% in [13]; 0% in assay [9]; 0% in [10]. Moreover, the inhibition in [1] came out at 100%; in assay [3], 90%; in assay [5] it was 100%; in assay [6] it was 100%; in [7], 100%; in assay [8] it was 98%. The inhibition in assay [11] came out at 89%. Besides, the inhibition at 0.01 µM in [11] is 85%. For the same molecule, the “antiviral effect, EV68” value in assay [12] (Conc. 0.1 (unit uncertain)) is listed as 31%.
With `COc1ccc(-c2c(C)nn3c(NCc4ccc(Cl)cc4)cc(C)nc23)cc1OC` [Ex. 1, N-[(4-chlorophenyl)methyl]-3-(3,4-dimethoxyphenyl)-2,5-dimethyl-pyrazolo[1,5-a]pyrimidin-7-amine], the inhibition at 5000 µM in assay [1] was determined as 86%; in assay [5] it was 31%; in assay [6] it was 60%; in [7] it was 93%; in assay [8] it was 90%; in [11] it was 95%. The results for the inhibition at 5 µM in [2], in [4] and in assay [13] were 34%, 100% and 14%, respectively. Moreover, in assay [3] (Conc.), the inhibition was 90%. Moreover, in assay [3] (read-out: % inh.), the inhibition at 0.25 µM was 75%.
In the case of `COc1ccc(-c2cnn3c(NCc4ccncc4)cc(C)nc23)cc1OC` [Ex. 100, 3-(3,4-dimethoxyphenyl)-5-methyl-N-(4-pyridylmethyl)pyrazolo[1,5-a]pyrimidin-7-amine], the inhibition at 100 µM in assay [14] was found to be 81%; in assay [2], 0%; in assay [4], 78%; in assay [9], 0%; in [10], 0%. For the same molecule, the inhibition in [3] worked out at 88%; in [5], 83%; in [6], 99%; in [8] it was 90%. This molecule yielded an inhibition at 0.1 µM in assay [4] (EV30, Conc. 0.1 μM) of 78%.
In the case of `COc1ccc(CNc2cc(C)nc3c(-c4ccc(OC)c(OC)c4)c(C)nn23)cc1` [Ex. 2, 3-(3,4-dimethoxyphenyl)-N-[(4-methoxyphenyl)methyl]-2,5-dimethyl-pyrazolo[1,5-a]pyrimidin-7-amine], the inhibition at 5000 µM in [1] was determined as 86%; in [5], 90%; in [6] it was 93%; in assay [7], 91%; in [8] it was 91%; in assay [11], 97%. Moreover, the inhibition at 5 µM in assay [2] came to 49%; in [4] it was 91%; in assay [13], 0%. Besides, the inhibition in assay [3] (Conc.) came out at 83%. Further, in assay [4] (EV30, Conc. 0.25 μM), the inhibition at 0.25 µM stood at 85%.
In the case of `COc1ccc(-c2cnn3c(NCc4cccc(S(C)(=O)=O)c4)cc(C)nc23)cc1OC` [Ex. 101, 3-(3,4-dimethoxyphenyl)-5-methyl-N-[(3-methylsulfonylphenyl)methyl]pyrazolo[1,5-a]pyrimidin-7-amine], the inhibition at 100 µM in assay [14] is 99%; in assay [2] it was 0%; in assay [4], 89%; in [9], 0%; in assay [10], 0%. In assay [14] (EV71, Conc. 0.1 μM), the inhibition at 0.1 µM amounted to 99%. In addition, the inhibition in assay [3] worked out at 44%; in assay [5] it was 100%; in [6], 99%; in assay [8] it was 29%; in [11], 90%.
Take `COc1ccc(CNc2cc(C)nc3c(-c4ccc(OC)c(OC)c4)c(C)nn23)cn1` [Ex. 79, 3-(3,4-dimethoxyphenyl)-N-[(6-methoxy-3-pyridyl)methyl]-2,5-dimethyl-pyrazolo[1,5-a]pyrimidin-7-amine]: the inhibition at 100 µM was 88% in [14]; 0% in assay [2]; 10% in assay [4]; 0% in [13]; 0% in [9]; 0% in [10]. Besides, the inhibition in assay [1] stood at 78%; in assay [3] it was 0%; in assay [5], 79%; in assay [6], 84%; in [7], 88%; in [8] it was 98%. For the same molecule, the inhibition in assay [11] is 87%. Moreover, the “antiviral effect, EV68” value in assay [12] (Conc. 0.1 (unit uncertain)) worked out at 46%. In assay [12] (EV68, Conc. 1 μM), this molecule had an inhibition at 1 µM of 51%.
On to `COc1ccc(-c2c(C)nn3c(NCc4ccc(F)cc4)cc(C(C)C)nc23)cc1OC` [Ex. 111, 3-(3,4-dimethoxyphenyl)-N-[(4-fluorophenyl)methyl]-5-isopropyl-2-methyl-pyrazolo[1,5-a]pyrimidin-7-amine], for which the inhibition at 1000 µM in assay [1] is 98%; in assay [5], 100%; in assay [6], 96%; in assay [7] it was 97%; in [8], 99%; in assay [11], 100%. Also, the inhibition at 1 µM in [2] was 0%; in [4], 80%. Also, the inhibition at 0.1 µM in assay [7] (read-out: % inh.) came out at 68%. The “antiviral effect, EV68” value in [12] (Conc. 1 (unit uncertain)) is 40%.
